These results are taken from patent US5614527A, “Insecticidal tetrahydrofuran-compound” (Mitsui Toatsu Chemicals, Inc., priority 1994, dated 1997).

Broadly, the mortality is the share of the test organisms that died. Usually LD50 stands for the dose at which mortality reaches 50%. A lower LD50 goes with greater toxicity.

SMILES strings stand for the structures. Where two headings read alike, the source gives them in different places.

The test system of data set [1] is Myzus persicae Sulzer--Green peach aphid. Put plainly: Effect on green peach aphid (mortality, sprayed eggplant seedlings). It is filed as in vivo. The note with it: for mortality at 10 ppm / mortality at 100 ppm: Myzus persicae, 48 h; for Mortality (%): 48 hours. The procedure:
(§1) 20 parts of a compound of the present invention, 10 parts of Sorpol 355S (made by Toho Chemical Co., Ltd., a surface active agent), 70 parts of xylene were uniformly stirred and mixed to obtain an emulsion. Here, the parts mean parts by weight, which will apply to the following.
Effect on Myzus persicae Sulzer--Green peach aphid
The emulsion of each compound of the present invention prepared according to Formulation Example 1 was diluted with distilled water to a predetermined concentration, and a spreading agent (New Gramn, made by Sankyo Co., Ltd.) was then added thereto so that its concentration might be 0.02%. Then, the thus prepared chemical solution was sprayed over eggplant seedlings of 2nd and 3rd plastochrons, on which green peach aphids had been parasitic, and the seedlings were the cultivated in a hothouse. After 48 hours, the number of the alive green peach aphid was counted to calculate mortality.

Data set [2] deals with resistant strain of Nepphotettix cincticeptus Unler--Resistant green rice leafhopper. Put plainly: Effect on resistant green rice leafhopper (mortality, treated rice seedlings). Conditions: for mortality at 200 ppm / mortality at 1000 ppm: Nephotettix cincticeps. The class given is in vivo. The procedure:
Effect on resistant strain of Nepphotettix cincticeptus Unler--Resistant green rice leafhopper
(§2) Each compound of the present invention was dissolved in acetone to prepare an acetone solution having a predetermined concentration, and 3 ml of the acetone solution was applied over a bundle of several rice seedlings (about third leaf stage). After drying in air, the treated seedlings were covered with a metal gauze cylinder, and ten female adults of resistant green rice leafhopper were introduced into the cylinder. Afterward, this cylinder was placed in a temperature controlled room at 25° C., and after 48 hours, mortality was checked.

In data set [3] the test system is Laodelphax striatellus Fallen--Smaller brown planthopper. Put plainly: Effect on smaller brown planthopper (mortality, treated rice seedlings). The class given is in vivo. Conditions: female adults, 25° C., 48 hours. The procedure:
as §2, with “Effect on Laodelphax striatellus Fallen--Smaller brown planthopper Each” for “Each”, “smaller brown planthopper” for “resistant green rice leafhopper”, “C.” for “C.,”

A short description of data set [4]: Acute toxicity to mice (oral). Conditions: mouse, in vivo; oral (stomach tube); male mice 6 weeks old; 14 days observation. As to the method:
5-week-old male mice (Crj: CD-1) were purchased and then tamed for 1 week, and so the mice of 6 weeks old were tested. The mice were bred in a breeding chamber having a temperature of 23°±2° C., a humidity of 50±10%, a ventilation frequency of 15 times/hour and a lighting time of 12 hours/day. A solid feed (CE-2, made by Nippon Clea) was given, and as drinking water, tap water was freely given.
Each compound to be tested was Suspended in acetone:corn oil (1:9) by the use of a high-speed homogenizer, and then orally administered forcedly to the mice to be tested through a stomach tube. The amount of the solution to be administered was 0.1 ml with respect to 10 g of weight (10 ml/kg).
One administration group was constituted of 5 mice, and an observation period was 14 days from the administration.

The test system of data set [5] is Spodoptera litura Fabricius--Common cutworm. Put plainly: Effect on common cutworm (mortality, leaf immersion). It is filed as in vivo. The note with it: second instar larvae, 25° C.; for Mortality (%): 1000 ppm, 72 hours, 4320 min; for mortality at 1000 ppm: Spodoptera litura, 72 h. The procedure:
as §1
Effect on Spodoptera litura Fabricius--Common cutworm
The emulsion of each compound of the present invention prepared according to Formulation Example 1 was diluted with distilled water to a predetermined concentration, and a spreading agent New Gramin, made by Sankyo Co., Ltd.) was then added thereto so that its concentration might be 0.02%. Then, 3leaves of Ipomea batatas were fully immersed in the solution. After drying in air, the leaves were placed in a plastic cup having a diameter of 9 cm and a depth of 4 cm, and 10 second instar larvae of common cutworm were allowed to eat the leaves at 25° C. After 72 hours, mortality was checked.

Where [6] appears, read: 200 ppm, female adults, 25° C., 48 hours, read-out: Mortality (%).
Where [7] appears, read: 1000 ppm, female adults, 25° C., 48 hours, read-out: Mortality (%).

In data set [1] (10 ppm), `CC(C)C(=O)N1CCCN(CC2CCOC2)C1=N[N+](=O)[O-]` (stereo not drawn) [Compound No. 9, 1-(isopropylcarbonyl)-2-(nitroimino)-3-[(tetrahydro-3-furanyl)methyl]hexahydropyrimidine] yielded a mortality at 10 ppm of 86%. This compound came in with a mortality at 100 ppm in data set [1] (100 ppm) of 100%. Besides, the mortality at 200 ppm in data set [2] (setting [6]) came out at 100%. Also, the mortality at 1000 ppm in data set [2] (setting [7]) was 100%. In addition, the “Mortality (%)” value in data set [3] (200 ppm) and in data set [3] (1000 ppm) was 100% in each case.
With `O=[N+]([O-])/N=C1\NCCCN1Cc1ccc(Cl)nc1` [Comparative Compound (4), reference compound], the LD50 at 336 h in data set [4] lay within 30 to 100 mg/kg.
Consider `CCC(=O)N1CCCN(CC2CCOC2)C1=N[N+](=O)[O-]` (stereo not drawn) [Compound No. 13, 1-propionyl-2-(nitroimino)-3-[(tetrahydro-3-furanyl)methyl]hexahydropyrimidine], for which the “Mortality (%)” value in data set [1] (10 ppm, 2880 min) was 27%; in data set [1] (100 ppm), 100%; in data set [2] (200 ppm, female adults, 25° C., 48 hours) it was 100%; in data set [2] (1000 ppm, female adults, 25° C., 48 hours), 100%; in data set [3] (200 ppm) it was 100%; in data set [3] (1000 ppm), 100%. Besides, the “Mortality (%)” value in data set [5] came out at 100%.
As for `O=[N+]([O-])N=C1NCCN1CC1CCCO1` (stereo not drawn) [Comparative Compound (1), 1-[(tetrahydro-2-furanyl)methyl]-2-(nitroimino)imidazolidine, reference compound], the mortality at 10 ppm in data set [1] (10 ppm) is 0%. The compound further came in with a mortality at 100 ppm in data set [1] (100 ppm) of 0%. In addition, the mortality at 200 ppm in data set [2] (setting [6]) stood at 0%. For the same compound, the mortality at 1000 ppm in data set [2] (setting [7]) was 30%; in data set [5], 0%. Besides, the results for the “Mortality (%)” value in data set [3] (200 ppm) and in data set [3] (1000 ppm) were 0% and 20%, respectively.
As to `CC(=O)N1CCCN(CC2COC(C)C2)C1=N[N+](=O)[O-]` (stereo not drawn) [Compound No. 10, 1-(methylcarbonyl)-3-[(2-methyl-4-tetrahydrofuryl)methyl]-2-(nitroimino) hexahydropyrimidine], the mortality at 10 ppm in data set [1] (10 ppm) worked out at 100%. Further, the mortality at 100 ppm in data set [1] (100 ppm) was 100%. Also, the mortality at 200 ppm in data set [2] (setting [6]) turned out to be 100%. Also, the mortality at 1000 ppm in data set [2] (setting [7]) and in data set [5] was 100% in each case. Further, the “Mortality (%)” value in data set [3] (200 ppm) and in data set [3] (1000 ppm) was 100% each time.
Compound `CC(=O)N1CCN(CC2CCOC2)C1=N[N+](=O)[O-]` (stereo not drawn) [Compound No. 7, 1-(methylcarbonyl)-2-(nitroimino)-3-[(tetrahydro-3-furanyl)methyl]imidazolidine] returned a mortality at 10 ppm in data set [1] (10 ppm) of 63%. In data set [1] (100 ppm), this compound gave a mortality at 100 ppm of 100%. For the same compound, in data set [2] (setting [6]), the mortality at 200 ppm stood at 100%. Further, the mortality at 1000 ppm in data set [2] (setting [7]) and in data set [5] was 100% each time. Moreover, the “Mortality (%)” value in data set [3] (200 ppm) and in data set [3] (1000 ppm) was 100% throughout.
`CC(=O)N1CCCN(CC2CCOC2)C1=N[N+](=O)[O-]` (stereo not drawn) [Compound No. 8, 1-(methylcarbonyl)-2-(nitroimino)-3-[(tetrahydro-3-furanyl)methyl]hexahydropyrimidine] gave a mortality at 10 ppm in data set [1] (10 ppm) of 100%. For the same compound, the mortality at 100 ppm in data set [1] (100 ppm) is 100%. Besides, the mortality at 200 ppm in data set [2] (setting [6]) was 100%. Besides, the mortality at 1000 ppm in data set [2] (setting [7]) amounted to 100%. The “Mortality (%)” value in data set [3] (200 ppm) and in data set [3] (1000 ppm) was 100% in each case.
In turn, `CCC(=O)N1CCCN(CC2CCOC2)C1=N[N+](=O)[O-]` (stereo not drawn) [Compound No. 11, 1-(ethylcarbonyl)-2-(nitroimino)-3-[(tetrahydro-3-furanyl)methyl]hexahydropyrimidine] came in with a mortality at 100 ppm in data set [1] (100 ppm) of 100%. The mortality at 200 ppm in data set [2] (setting [6]) turned out to be 100%. Also, the mortality at 1000 ppm in data set [2] (setting [7]) amounted to 100%. Further, the “Mortality (%)” value in data set [3] (200 ppm) was determined as 100%; in data set [3] (1000 ppm), 100%; in data set [5] it was 70%.
For `O=[N+]([O-])C=C1NCCCN1CC1CCOC1` (stereo not drawn) [Comparative Compound (3), reference compound], the mortality at 1000 ppm in data set [5] stood at 0%.
As for `CC1CC(CN2CCNC2=N[N+](=O)[O-])CO1` (stereo not drawn) [Compound No. 5, 1-[(2-methyl-4-tetrahydrofuryl)methyl]-2-(nitroimino)imidazolidine], the mortality at 10 ppm in data set [1] (10 ppm) came to 100%. Besides, the mortality at 100 ppm in data set [1] (100 ppm) came to 100%. Moreover, in data set [2] (setting [6]), the mortality at 200 ppm was found to be 100%. Moreover, the mortality at 1000 ppm in data set [2] (setting [7]) was found to be 100%. Besides, the “Mortality (%)” value in data set [3] (200 ppm) and in data set [3] (1000 ppm) was 100% each time.
Take `CCCC(=O)N1CCN(CC2CCOC2)C1=N[N+](=O)[O-]` (stereo not drawn) [Compound No. 12, 1-(propylcarbonyl)-2-(nitroimino)-3-[(tetrahydro-3-furanyl)methyl]imidazolidine]: the mortality at 10 ppm in data set [1] (10 ppm) turned out to be 0%. In data set [1] (100 ppm), this compound showed a mortality at 100 ppm of 66%. The mortality at 200 ppm in data set [2] (setting [6]) turned out to be 100%. The mortality at 1000 ppm in data set [2] (setting [7]) and in data set [5] was 100% throughout. Moreover, the “Mortality (%)” value in data set [3] (200 ppm) and in data set [3] (1000 ppm) was 100% throughout.
With `O=[N+]([O-])N=C1NCCN1CC1CCOC1` (stereo not drawn) [Compound No. 4, 1-[(tetrahydro-3-furanyl)methyl]-2-(nitroimino)imidazolidine], in data set [1] (10 ppm), the mortality at 10 ppm came to 67%. This compound yielded a mortality at 100 ppm in data set [1] (100 ppm) of 100%. Also, the mortality at 200 ppm in data set [2] (setting [6]) was 100%. In addition, the mortality at 1000 ppm in data set [2] (setting [7]) and in data set [5] was 100% each time. Also, the “Mortality (%)” value in data set [3] (200 ppm) and in data set [3] (1000 ppm) was 100% each time.
In the case of `CC1CC(CN2CCCNC2=N[N+](=O)[O-])CO1` (stereo not drawn) [Compound No. 2, 1-[(2-methyl-4-tetrahydrofuryl)methyl]-2-(nitroimino)hexahydropyrimidine], the mortality at 10 ppm in data set [1] (10 ppm) worked out at 100%. In data set [1] (100 ppm), this compound showed a mortality at 100 ppm of 100%. In data set [2] (48 h), this compound displayed a mortality at 200 ppm of 100% and a mortality at 1000 ppm of 100%. The compound also returned an LD50 at 336 h in data set [4] of more than 500 mg/kg. For the same compound, in data set [3] (200 ppm), the “Mortality (%)” value worked out at 100%. Further, in data set [3] (1000 ppm), the “Mortality (%)” value is 100%.
For `CC1(C)CC(CN2CCNC2=N[N+](=O)[O-])CO1` (stereo not drawn) [Compound No. 6, 1-[(2,2-dimethyl-4-tetrahydrofuryl)methyl]-2-(nitroimino)imidazolidine], in data set [1] (10 ppm), the mortality at 10 ppm was 82%. Moreover, the mortality at 100 ppm in data set [1] (100 ppm) is 100%. Besides, the mortality at 200 ppm in data set [2] (setting [6]) stood at 100%. The mortality at 1000 ppm in data set [2] (setting [7]) is 100%. The “Mortality (%)” value in data set [3] (200 ppm) and in data set [3] (1000 ppm) was 100% each time.
On to `CC1(C)CC(CN2CCCNC2=N[N+](=O)[O-])CO1` (stereo not drawn) [Compound No. 3, 1-[(2,2-dimethyl-4-tetrahydrofuryl)methyl]-2-(nitroimino)hexahydropyrimidine], for which the mortality at 10 ppm in data set [1] (10 ppm) was determined as 100%. The mortality at 100 ppm in data set [1] (100 ppm) turned out to be 100%. Further, in data set [2] (setting [6]), the mortality at 200 ppm came to 100%. For the same compound, the mortality at 1000 ppm in data set [2] (setting [7]) was 100%. Besides, the “Mortality (%)” value in data set [3] (200 ppm) and in data set [3] (1000 ppm) was 100% in each case.
In the case of `O=[N+]([O-])N=C1NCCN1Cc1ccoc1` [Comparative Compound (2), reference compound], the results for the “Mortality (%)” value in data set [3] (200 ppm) and in data set [3] (1000 ppm) were 0% and 40%, respectively. This compound also yielded a mortality at 1000 ppm in data set [5] of 0%.
